Laboratory results published in ChEMBL document CHEMBL4130624, “Optimization of 1,4-Oxazine β-Secretase 1 (BACE1) Inhibitors Toward a Clinical Candidate” (J Med Chem, 2018).

Key:
[1] = Tmax in Sprague-Dawley rat at 10 mg/kg, po administered as bolus dose by LC-MS/MS analysis; type: ADME, organism-based; conditions: in vivo
[2] = Fraction unbound in mouse plasma at 5 uM after 4.5 hrs by HPLC-MS/MS method based rapid equilibrium dialysis; type: ADME, cell-free
Cytochrome P450 2C9 = Cytochrome P450 2C9 (Homo sapiens, UniProt P11712); assay: Reversible inhibition of recombinant human CYP2C9 by fluorescence-based assay; type: ADME
Sequence of Cytochrome P450 2C9 (P11712 whole entry): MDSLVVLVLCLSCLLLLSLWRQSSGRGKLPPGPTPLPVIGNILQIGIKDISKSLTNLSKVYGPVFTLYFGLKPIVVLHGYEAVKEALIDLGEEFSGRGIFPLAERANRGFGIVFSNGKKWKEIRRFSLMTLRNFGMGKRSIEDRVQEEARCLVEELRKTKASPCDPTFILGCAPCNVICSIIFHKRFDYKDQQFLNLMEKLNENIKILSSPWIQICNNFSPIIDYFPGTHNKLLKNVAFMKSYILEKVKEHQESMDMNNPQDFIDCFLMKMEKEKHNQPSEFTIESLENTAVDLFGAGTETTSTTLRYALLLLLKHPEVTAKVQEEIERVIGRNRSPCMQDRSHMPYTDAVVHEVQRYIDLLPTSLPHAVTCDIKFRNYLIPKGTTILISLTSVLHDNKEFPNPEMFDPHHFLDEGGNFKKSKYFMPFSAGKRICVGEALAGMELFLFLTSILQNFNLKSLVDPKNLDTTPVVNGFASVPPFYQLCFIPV

[3] = AUC (0 to 24 hrs) in female Beagle dog at 70 mg/kg, po measured after 1 month repeated dosing by LC-MS/MS analysis; conditions: in vivo
Rattus norvegicus [4] = assay: Systemic clearance in Sprague-Dawley rat at 2.5 mg/kg, iv administered as bolus dose by LC-MS/MS analysis relative to liver blood flow; type: ADME, organism-based; conditions: in vivo
Canis familiaris [5] = assay: Toxicity in beagle dog assessed as induction of ataxia at 70 to 250 mg/kg/day, po qd for 1 week; type: organism-based, Canis lupus familiaris; conditions: in vivo, 168 h
[6] = AUC (0 to 24 hrs) in male Beagle dog at 70 mg/kg, po measured after 1 month repeated dosing by LC-MS/MS analysis; conditions: in vivo
[7] = Ratio of fEC50 for antialzheimer activity in po dosed Beagle dog assessed as reduction in amyloid beta (1 to 40) levels to Inhibition of BACE1 (1 to 454 residues) (unknown origin); type: functional
Rattus norvegicus [8] = assay: Toxicity in Sprague-Dawley rat assessed as effect on food consumption at 225 mg/kg/day, po administered via gavage for 1 month; type: organism-based; conditions: in vivo
Canis familiaris [9] = assay: Toxicity in beagle dog assessed as induction of reduction in general activity at 70 to 250 mg/kg/day, po qd for 1 week; type: organism-based, Canis lupus familiaris; conditions: in vivo, 168 h
[10] = Toxicity in male beagle dog at 20 to 250 mg/kg/day, po qd for 1 month; type: organism-based, Canis lupus familiaris; conditions: in vivo
THP-1 = assay: Induction of phospholipidosis in human THP1 cells at 21 uM after […] by ethidiumbromide-based fluorescence assay relative to control; type: cell-based; conditions: thp-1, 21 µM
Rattus norvegicus [11] = assay: Toxicity in female Sprague-Dawley rat assessed as increase in formation of foamy macrophages in lungs at 75 mg/kg/day, po administered via gavage for 1 month; type: organism-based; conditions: in vivo
Cytochrome P450 3A4 = Cytochrome P450 3A4 (Homo sapiens, UniProt P08684); assay: Reversible inhibition of recombinant human CYP3A4 by fluorescence-based assay; type: ADME
Sequence of Cytochrome P450 3A4 (P08684 whole entry): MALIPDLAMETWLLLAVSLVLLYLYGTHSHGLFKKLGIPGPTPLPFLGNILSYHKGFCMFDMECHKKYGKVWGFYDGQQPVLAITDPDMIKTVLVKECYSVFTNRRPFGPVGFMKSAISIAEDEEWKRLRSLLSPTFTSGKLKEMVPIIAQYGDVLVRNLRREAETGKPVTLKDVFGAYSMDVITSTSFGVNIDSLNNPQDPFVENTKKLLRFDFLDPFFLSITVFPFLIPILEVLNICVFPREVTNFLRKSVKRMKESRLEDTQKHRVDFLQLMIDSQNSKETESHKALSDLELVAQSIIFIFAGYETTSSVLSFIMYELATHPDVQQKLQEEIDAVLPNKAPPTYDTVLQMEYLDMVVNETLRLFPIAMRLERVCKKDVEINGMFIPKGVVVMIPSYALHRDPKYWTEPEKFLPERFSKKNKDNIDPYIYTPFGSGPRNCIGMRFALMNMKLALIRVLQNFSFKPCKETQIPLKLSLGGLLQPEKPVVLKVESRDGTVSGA

Rattus norvegicus [12] = assay: Toxicity in Sprague-Dawley rat assessed as effect on body weight at 225 mg/kg/day, po administered via gavage for 1 month; type: organism-based; conditions: in vivo
[13] = Cmax in male Beagle dog at 70 mg/kg, po measured after 1 month repeated dosing by LC-MS/MS analysis; conditions: in vivo
[14] = Tmax in Beagle dog at 10 mg/kg, po administered as bolus dose by LC-MS/MS analysis; type: ADME, organism-based, Canis lupus familiaris; conditions: in vivo
[15] = Fraction unbound in rat plasma at 5 uM after 4.5 hrs by HPLC-MS/MS method based rapid equilibrium dialysis; type: ADME, cell-free
Cytochrome P450 2C19 = Cytochrome P450 2C19 (Homo sapiens, UniProt P33261); assay: Reversible inhibition of recombinant human CYP2C19 by fluorescence-based assay; type: ADME
Sequence of Cytochrome P450 2C19 (P33261 whole entry): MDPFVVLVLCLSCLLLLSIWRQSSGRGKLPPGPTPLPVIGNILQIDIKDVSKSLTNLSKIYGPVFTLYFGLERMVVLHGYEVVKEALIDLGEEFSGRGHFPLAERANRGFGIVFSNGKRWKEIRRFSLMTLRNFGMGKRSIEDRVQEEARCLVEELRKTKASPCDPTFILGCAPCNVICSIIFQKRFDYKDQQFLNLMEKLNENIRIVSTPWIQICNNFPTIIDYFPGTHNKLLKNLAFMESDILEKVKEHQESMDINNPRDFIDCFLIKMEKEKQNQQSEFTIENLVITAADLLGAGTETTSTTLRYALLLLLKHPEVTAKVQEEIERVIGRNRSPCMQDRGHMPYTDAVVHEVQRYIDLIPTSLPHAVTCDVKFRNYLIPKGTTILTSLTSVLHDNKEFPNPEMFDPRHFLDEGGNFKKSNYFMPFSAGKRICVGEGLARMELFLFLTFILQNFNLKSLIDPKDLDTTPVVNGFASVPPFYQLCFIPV

Canis familiaris [16] = assay: Systemic clearance in Beagle dog at 1 mg/kg, iv administered as bolus dose by LC-MS/MS analysis relative to liver blood flow; type: ADME, organism-based, Canis lupus familiaris; conditions: in vivo
Beta-secretase 1 [17] = molecular target: T1, Beta-secretase 1 (Homo sapiens, UniProt P56817); assay: Inhibition of BACE1 in human SKNBE2 cells transfected with APP695 protein assessed as reduction in amyloid beta (1 to 42) levels after 18 hrs by sandwich alphalisa assay; type: cell-based
T1 sequence (P56817 whole entry): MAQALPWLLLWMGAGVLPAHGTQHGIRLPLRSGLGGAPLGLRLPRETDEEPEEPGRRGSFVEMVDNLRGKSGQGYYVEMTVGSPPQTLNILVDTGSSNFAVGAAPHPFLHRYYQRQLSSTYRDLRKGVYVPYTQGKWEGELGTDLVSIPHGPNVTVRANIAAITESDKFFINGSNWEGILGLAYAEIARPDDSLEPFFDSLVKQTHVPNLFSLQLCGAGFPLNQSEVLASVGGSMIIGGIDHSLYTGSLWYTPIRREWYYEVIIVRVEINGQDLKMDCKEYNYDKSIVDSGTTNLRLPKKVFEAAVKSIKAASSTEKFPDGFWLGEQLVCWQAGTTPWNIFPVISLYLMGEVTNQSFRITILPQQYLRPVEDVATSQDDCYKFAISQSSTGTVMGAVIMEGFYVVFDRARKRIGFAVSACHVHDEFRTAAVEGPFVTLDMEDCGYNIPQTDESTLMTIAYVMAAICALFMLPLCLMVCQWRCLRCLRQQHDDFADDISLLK

[18] = Safety index, ratio of NOAEL for cardiotoxicity in anesthetized guinea pigs assessed as free drug level causing QTcB prolongation dosed up to 10 mg/kg, iv administered over a period of 5 min at 15 mins interval by ECG analysis to EC50 for Antialzheimer activity in po dosed Beagle dog assessed as reduction in amyloid beta (1 to 40) levels measured after 1 hr post dose by ELISA; type: toxicity, organism-based; conditions: guinea pig, in vivo
TK6 [19] = assay: Genotoxicity in human TK6 cells at 188 ug/ml after 4 hrs in presence of rat liver S9 fraction by micronucleus assay; type: toxicity, cell-based; conditions: s9, 4 h
[20] = Fraction unbound in dog plasma at 5 uM after 4.5 hrs by HPLC-MS/MS method based rapid equilibrium dialysis; type: ADME, cell-free, Canis lupus familiaris
[21] = Oral bioavailability in Beagle dog at 10 mg/kg administered as bolus dose by LC-MS/MS analysis; type: ADME, organism-based, Canis lupus familiaris; conditions: in vivo
[22] = Drug metabolism in human liver microsomes at 1 uM after 15 mins in presence of NADPH by HPLC-MS/MS analysis; type: ADME, microsome; conditions: read-out: Drug metabolism
Beta-secretase 1 [23] = molecular target: T1, Beta-secretase 1; assay: Inhibition of BACE1 (1 to 454 residues) (unknown origin) using APP derived polypeptide harboring Lys-Met/Asn-Leu mutation as substrate by FRET assay
Canis familiaris [24] = assay: Toxicity in beagle dog assessed as induction of tremors at 70 to 250 mg/kg/day, po qd for 1 week; type: organism-based, Canis lupus familiaris; conditions: in vivo, 168 h
[25] = Fraction unbound in human plasma at 5 uM after 4.5 hrs by HPLC-MS/MS method based rapid equilibrium dialysis; type: ADME, cell-free
Canis familiaris [26] = assay: Toxicity in Beagle dog assessed as induction of behavioural changes at 0.63 to 20 mg/kg, po qd for 6 days; type: organism-based, Canis lupus familiaris; conditions: in vivo, 144 h
TK6 [27] = assay: Genotoxicity in human TK6 cells at 80 ug/ml after 24 hrs in absence of rat liver S9 fraction by micronucleus assay; type: toxicity, cell-based; conditions: tk6, 24 h
Canis familiaris [28] = assay: Toxicity in Beagle dog assessed as induction of appearance changes at 0.63 to 20 mg/kg, po qd for 6 days; type: organism-based, Canis lupus familiaris; conditions: in vivo, 144 h
[29] = Ratio of drug level in lung to plasma of Sprague-Dawley rat at 10 mg/kg, po; type: ADME, organism-based
[30] = Safety index, ratio of NOAEL for cardiotoxicity in anesthetized guinea pigs assessed as total drug level causing QTcB prolongation dosed up to 10 mg/kg, iv administered over a period of 5 min at 15 mins interval by ECG analysis to EC50 for Antialzheimer activity in po dosed Beagle dog assessed as reduction in amyloid beta (1 to 40) levels measured after 1 hr post dose by ELISA; type: toxicity, organism-based; conditions: guinea pig, in vivo
[31] = Volume of distribution at steady state in Swiss mouse at 2.5 mg/kg, iv administered as bolus dose by LC-MS/MS analysis; type: ADME, organism-based; conditions: in vivo, read-out: Vdss
[32] = molecular target: Mu-type opioid receptor (Homo sapiens) (UniProt P35372); assay: Inhibition of recombinant human mu-type opioid receptor at 10 uM after 5 mins
Sequence of Mu-type opioid receptor (Homo sapiens) (P35372 whole entry): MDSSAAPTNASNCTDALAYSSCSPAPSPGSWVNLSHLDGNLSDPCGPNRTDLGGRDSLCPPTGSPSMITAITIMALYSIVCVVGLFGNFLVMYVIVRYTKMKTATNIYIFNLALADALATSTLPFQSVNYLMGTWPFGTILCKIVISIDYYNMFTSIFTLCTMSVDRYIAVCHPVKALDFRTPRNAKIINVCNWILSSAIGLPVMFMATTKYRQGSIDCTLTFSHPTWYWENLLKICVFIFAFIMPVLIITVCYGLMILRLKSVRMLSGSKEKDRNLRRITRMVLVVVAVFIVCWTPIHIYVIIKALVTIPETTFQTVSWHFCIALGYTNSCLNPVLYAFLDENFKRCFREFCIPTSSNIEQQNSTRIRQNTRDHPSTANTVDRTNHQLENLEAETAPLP

Canis familiaris [33] = assay: Toxicity in Beagle dog assessed as drug tolerability at 0.63 to 20 mg/kg, po qd for 6 days; type: organism-based, Canis lupus familiaris; conditions: in vivo, 144 h
Rattus norvegicus [34] = assay: Toxicity in Sprague-Dawley rat assessed as drug tolerability at 25 to 75 mg/kg/day, po measured after 1 month repeated dosing; type: organism-based; conditions: in vivo
Canis familiaris [35] = assay: Toxicity in male beagle dog assessed as induction of pigmentation at 20 to 250 mg/kg/day, po qd for 1 month; type: organism-based, Canis lupus familiaris; conditions: in vivo

C[C@]1(c2cc(NC(=O)c3ccc(C#N)cn3)ccc2F)N=C(N)CO[C@H]1C(F)(F)F
Tmax [1]: 2 h | fraction unbound at 4.5 h, 5 µM [2]: 0.23 | IC50 (Cytochrome P450 2C9): > 30000 nM | AUC at 24 h [3]: 23100 ng·h/mL | CL (Rattus norvegicus [4]): 67% | Activity (Canis familiaris [5]): Toxic | AUC at 24 h [6]: 26300 ng·h/mL | Ratio [7]: 3 | Activity (Rattus norvegicus [8]): Non-Toxic | Activity (Canis familiaris [9]): Toxic | NOAEL at 1 month [10]: 70 mg/kg/day | fold change (FC) (THP-1): 2 | Activity (Rattus norvegicus [11]): Toxic | IC50 (Cytochrome P450 3A4): > 30000 nM | Activity (Rattus norvegicus [12]): Non-Toxic | Cmax at 1 month [13]: 1970 ng/mL | Tmax [14]: 2 h | fraction unbound at 4.5 h, 5 µM [15]: 0.26 | IC50 (Cytochrome P450 2C19): > 30000 nM | CL (Canis familiaris [16]): 25% | IC50 (Beta-secretase 1 [17]): 6 nM | selectivity ratio [18]: 71 | Activity (TK6 [19]): Non-Toxic | fraction unbound at 4.5 h, 5 µM [20]: 0.26 | bioavailability [21]: 71% | metabolised at 0.25 h, 1 µM [22]: 2% | IC50 (Beta-secretase 1 [23]): 22.2 nM | Activity (Canis familiaris [24]): Toxic | fraction unbound at 4.5 h, 5 µM [25]: 0.36 | Activity (Canis familiaris [26]): Non-Toxic | Activity (TK6 [27]): Non-Toxic | Activity (Canis familiaris [28]): Non-Toxic | Kp [29]: 169 | selectivity ratio [30]: 50 | Vd [31]: 7.6 L/kg | inhibition [32]: 91% | Activity (Canis familiaris [33]): Non-Toxic | Activity (Rattus norvegicus [34]): Non-Toxic | Activity (Canis familiaris [35]): Non-Toxic
